According to publication PMC6711809 (Bioorganic & medicinal chemistry letters, 2019):

Target: HIV-1 protease (Human immunodeficiency virus type 1 group M subtype B, UniProt P04585)
Assay: HIV-1 protease inhibitory activity
Format: biochemical
Conditions: for fold better inhibitory activity than 3i: compared with 3i

COc1ccc(S(=O)(=O)N(CC(C)C)C[C@@H](O)[C@H](Cc2ccccc2)Nc2c(N(C)[C@@H]3CCOC3)c(=O)c2=O)cc1 [Inhibitor 3h]
fold more potent than 3g (compared with 3g): over 775 fold

COc1ccc(S(=O)(=O)N(CC(C)C)C[C@@H](O)[C@H](Cc2ccccc2)Nc2c(N(C)[C@H]3CO[C@H]4OCC[C@H]43)c(=O)c2=O)cc1 [Inhibitor 3k]
fold better inhibitory activity than 3i: over 10 fold

COCCOc1c(N[C@@H](Cc2ccccc2)[C@H](O)CN(CC(C)C)S(=O)(=O)c2ccc(OC)cc2)c(=O)c1=O [Inhibitor 3b]
loss of protease inhibitory activity relative to 3a (compared with 3a): over 4 fold

COc1ccc(S(=O)(=O)N(CC(C)C)C[C@@H](O)[C@H](Cc2ccccc2)Nc2c(N(C)[C@H]3CCOC3)c(=O)c2=O)cc1 [Inhibitor 3g]
potency enhancement over compound 3e (compared with 3e): 15 fold

COc1ccc(S(=O)(=O)N(CC(C)C)C[C@@H](O)[C@H](Cc2ccccc2)Nc2c(N[C@@H]3CO[C@@H]4OCC[C@@H]43)c(=O)c2=O)cc1 [Inhibitor 3j]
fold better inhibitory activity than 3i: ~10 fold
